# Assay results taken from paper PMC12299847, “Macroalgae-Inspired Brominated Chalcones as Cosmetic Ingredients with the Potential to Target Skin Inflammaging” (Marine Drugs, 2025).
# How the values were obtained:
# HaCaT keratinocytes = assay: Resazurin cell viability assay in HaCaT keratinocytes; type: cell-based, human; conditions: HaCaT, 24 h; for cytotoxicity / impact on keratinocyte viability: at 2.5 μM and 7.5 μM
# Experimental: (§1) To evaluate the effects of chalcones 1–7 on cell viability after 24 h, a resazurin assay was performed using two cell lines: human HaCaT keratinocytes (HaCaT, CLS 300493), representing the epidermal layer, and murine RAW 264.7 macrophages (RAW 264.7, ATCC TIB-71), which model immune cells involved in dermal inflammatory responses. For the keratinocyte cell line, all seven brominated and non-brominated chalcones were tested across a concentration range from 2.5 μM to 125 μM (Figure 2).
# (§2) Human keratinocytes (HaCaT, CLS 300493, Eppelheim, Germany) were cultured in DMEM supplemented with heat-inactivated FBS, and a penicillin and streptomycin antibiotic solution. The cell culture of keratinocytes was washed with 6 mL of phosphate buffer solution with 0.05% EDTA (Sigma-Aldrich, St. Louis, MO, USA) and detached using 3 mL of 0.05% trypsin + 0.02% EDTA in PBS solution when the cells reached 70–80% confluence in cell culture flasks. DMEM was also used to cultivate the mouse macrophage cell line (RAW 264.7, ATCC TIB-71, Manassas, VA, USA) together with 10% (v/v) non-inactivated FBS, 1.5 g/L sodium bicarbonate, and 100 U/mL penicillin and 100 μg/mL streptomycin stock (antibiotic solution). The macrophage culture was mechanically detached using a cell scraper, and the final amount of DMEM media with the cells was sub-cultured in a 1:10 ratio to the cellular suspension.
# (§3) The resazurin reduction assay was employed to evaluate the metabolic activity of human epidermal keratinocyte (HaCaT) and murine macrophage (RAW264.7) cell lines, as outlined in a previous study. In brief, HaCaT cells (1.0 × 10^5 cells/mL) and RAW264.7 cells (5.0 × 10^4 cells/mL) were seeded in 96-well plates (200 μL/well) and incubated overnight at 37 °C to allow for cell attachment. Following this, the cells were treated with different concentrations of the test compounds and kept at 37 °C for 24 h. After 20 h, resazurin (500 μM in sterile phosphate buffer solution, pH 7.4) was added to each well to achieve a final concentration of 50 μM, followed by an additional incubation of 4 h. Absorbance was then measured at wavelengths of 570 and 620 nm using a SpectraMax Plus 384 absorbance microplate spectrophotometer (Molecular Devices, San Jose, CA, USA). Each experiment was conducted in triplicate, with a minimum of three independent assays. The results were graphically presented as the percentage of cell viability versus chemical concentration, relative to the control.
# (§4) Figure 2 Cytotoxicity of chalcones 1–7 using a resazurin reduction assay in HaCaT cells by comparison with the control. Bar graphs represent the mean ± SEM of at least three independent experiments performed in triplicate. Statistical analysis: one ANOVA with Dunnett’s multiple comparisons test, where p < 0.05 was considered significant when compared to the control condition. * p < 0.05, ** p < 0.01, and *** p < 0.0005.
# [1] = as above; type: cell-based, human; conditions: human, HaCaT keratinocytes, resazurin, read-out: IC50 (cell viability, cytotoxicity)
# Experimental: as §1, §2, §3, §4
# RAW 264.7 macrophages = assay: Resazurin cell viability assay in RAW 264.7 macrophages; type: cell-based, murine; conditions: RAW 264.7, 24 h
# Experimental: as §1
# To evaluate the cytotoxic effects of brominated and non-brominated chalcones 1–7 on macrophages, different concentration ranges were applied based on the response profiles previously observed for keratinocytes (Figure 3). […] For this set of chalcones, a similar tendency was observed: a lower cytotoxic characteristic of chalcone 4, which contained bromine atoms in both aromatic rings, compared to chalcones 5 (brominated in only the aromatic A ring) and 6 (non-brominated).
# as §2
# as §3, with “The results were graphically presented as the percentage of cell viability versus chemical concentration, relative to the control.” left out
# [2] = system: NO production in LPS-stimulated RAW 264.7 macrophages; assay: NO production (Griess assay) in LPS-stimulated macrophages; type: cell-based, murine; conditions: Mus musculus, RAW264.7, 24 h, RAW 264.7, LPS 100 ng/mL, Griess
# Experimental: The anti-inflammatory potential of chalcones 1–7 was evaluated in macrophages cultured in the presence or absence (control) of LPS, as depicted in Figure 4. Under basal conditions (unstimulated, control), macrophages produce low levels of nitrites (≈12%). […] Each chalcone was tested at concentrations previously established as non-cytotoxic in macrophages, trying to ensure that observed changes in NO levels were not due to reduced cell viability.
# The production of NO was evaluated by measuring nitrite accumulation in culture supernatants using the previously described Griess assay. Cells were seeded at a concentration of 5.0 × 10^4 cells/mL in a 96-well plate (200 μL/well) and allowed to stabilize overnight at 37 °C. Afterwards, the cells were treated with different concentrations of compound solutions and pre-incubated for 1 h at 37 °C. Subsequently, an LPS in PBS solution was added to each well, achieving a final concentration of 100 ng/mL, and the plate was left to incubate for 24 h. An amount of 150 μL of the cell culture supernatant was then transferred to a fresh 96-well plate, and an equal amount of Griess reagent [comprising a 1:1 mixture of 1% (w/v) sulphanilamide in 5% (v/v) phosphoric acid and 0.1% (w/v) naphthylethylenediaminedihydrochloride] was added. Following a 30 min incubation at room temperature in the dark, the absorbance was recorded at 550 nm using a Biotek Synergy HT plate reader (Biotek, CA, USA). The nitrite concentration in the supernatants was determined by comparing the absorbance of each sample to a sodium nitrite standard curve. The results, obtained from at least three independent experiments performed in duplicate, were expressed as a percentage of NO production by cells versus chemical concentration, relative to LPS condition (100%).
# Figure 4 NO production by macrophages treated with LPS (100 ng/mL) or not (control) in the presence of chalcones 1–7. Results are expressed as a percentage of NO production by cells treated with LPS (100 ng/mL). Each value represents the mean ± SEM of four independent experiments in duplicate. Statistical analysis: one ANOVA with Dunnett’s multiple comparisons test, where p< 0.05 was considered significant. *** p < 0.005, relative to the control, and ^# p < 0.05, ^## p < 0.01, ^### p < 0.0005, and ^#### p < 0.0001, relative to LPS condition.
smiles,measurement,setting,value
COc1cc(Br)cc(/C=C/C(=O)c2c(Br)c(Br)cc(OC)c2OC)c1OC [Chalcone 4],cytotoxicity / impact on keratinocyte viability,HaCaT keratinocytes,no significant impact
same,IC50 at 24 h,[1],11.7 ± 1.34 µM
same,concentration up to which acceptable levels of cytotoxicity were observed,RAW 264.7 macrophages,up to 7.5 μM
same,IC50,[2],970 ± 220 nM
COc1cccc(/C=C/C(=O)c2cccc(OC)c2OC)c1OC [Chalcone 6],reduction in cellular viability,HaCaT keratinocytes; at 2.5 μM,~25%
same,IC50 at 24 h,[1],14.7 ± 3.97 µM
same,concentration up to which acceptable levels of cytotoxicity were observed,RAW 264.7 macrophages,up to 1 μM
same,IC50,[2],5950 ± 1490 nM
COc1cccc(/C=C/C(=O)c2c(Br)c(Br)cc(OC)c2OC)c1OC [Chalcone 5],cytotoxicity / impact on keratinocyte viability,HaCaT keratinocytes,no significant impact
same,IC50 at 24 h,[1],30.4 ± 2.66 µM
same,concentration up to which acceptable levels of cytotoxicity were observed,RAW 264.7 macrophages,up to 1 μM
same,IC50,[2],990 ± 540 nM
